Reference: US20070213339A1 (Bayer Pharmaceuticals Corporation, priority 2004, published 2007)

System: Colo205 human colon carcinoma cell line
Experiment: In vitro tumor cell proliferation assay (MTS, CellTiter 96 Aqueous One Solution)
Assay type: cell-based
Details: COLO 205, Colo205 cells, 72 hours compound exposure, MTS absorbance at 490 nm, read-out: IC50 (concentration of test compound required to inhibit proliferation of 50% of the cells)
Summary of the method: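 Proliferation measured as MTS tetrazolium reduction (490 nm) after 72 h compound exposure at 37 °C. Cells plated at 2000 per well in serum-supplemented RPMI-1640; duplicate 5-point dilutions topping out at 10-20 μM. Percent inhibition versus untreated and cell-free wells, IC50 derived by linear regression.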

IC50	Structure (SMILES)
2000 to 20000 nM	O=C(O)c1cn(-c2cccc(CN3CCCCC3)c2)c2c(Cl)c(N3CCN(c4ccc(F)cc4F)CC3)c(F)cc2c1=O [Example 64, 8-chloro-7-[4-(2,4-difluorophenyl)piperazin-1-yl]-6-fluoro-4-oxo-1-[3-(piperidin-1-ylmethyl)phenyl]-1,4-dihydroquinoline-3-carboxylic acid]
< 500 nM	CN(C)Cc1ccc(-n2cc(C(=O)O)c(=O)c3cc(F)c(N4CCN(c5ccc(Cl)cc5)CC4)c(OC(F)(F)Cl)c32)cc1 [Example 156, 8-[chloro(difluoro)methoxy]-7-[4-(4-chlorophenyl)piperazin-1-yl]-1-{4-[(dimethylamino)methyl]phenyl}-6-fluoro-4-oxo-1,4-dihydroquinoline-3-carboxylic acid]
< 500 nM	O=C(O)c1cn(-c2ccc(CN3CC[C@H](O)C3)cc2)c2c(Cl)c(N3CCN(c4ncccn4)CC3)c(F)cc2c1=O [Example 27, 8-chloro-6-fluoro-1-(4-{[(3S)-3-hydroxy-pyrrolidin-1-yl]methyl}phenyl)-4-oxo-7-(4-pyrimidin-2-ylpiperazin-1-yl)-1,4-dihydroquinoline-3-carboxylic acid]
2000 to 20000 nM	COc1c(N2CCN(c3ccc(C(F)(F)F)cc3)CC2)c(F)cc2c(=O)c(C(=O)O)cn(-c3ccc(CN4CCCC4)cc3)c12 [Example 82]
2000 to 20000 nM	O=C(O)c1cn(-c2ccc(CNCC3CCCCC3)cc2)c2c(Cl)c(N3CCN(c4ncccn4)CC3)c(F)cc2c1=O [Example 190, 8-chloro-1-{4-[(4-cyclohelmethyl-amino)-methyl]-phenyl}-6-fluoro-4-oxo-7-(4-pyrimidin-2-yl-piperazin-1-yl)-1,4-dihydroquinoline-3-carboxylic acid]
500 to 2000 nM	COc1cc(CNC2CCCC2)ccc1-n1cc(C(=O)O)c(=O)c2cc(F)c(N3CCN(c4ccc(F)cc4)CC3)c(Cl)c21 [Example 179, 8-chloro-1-(4-cyclopentylaminomethyl-2-methoxyphenyl)-6-fluoro-7-[4-(4-fluorophenyl)-piperazine-1-yl]-4-oxo-1,4-dihydroquinoline-3-carboxylic acid]
< 500 nM	COc1c(N2CCN(c3ncccn3)CC2)c(F)cc2c(=O)c(C(=O)O)cn(-c3ccc(CN4CCCCC4)cc3)c12 [Example 193, 6-fluoro-8-methoxy-4-oxo-1-(4-piperidin-1-ylmethyl-phenyl)-7-(4-pyrimidine-2-yl-piperazine-1-yl]-1,4-dihydroquinoline-3-carboxylic acid]
< 500 nM	CN(C)Cc1ccc(-n2cc(C(=O)O)c(=O)c3cc(F)c(N4CCN(c5ncccc5C#N)CC4)c(OC(F)(F)Cl)c32)cc1 [Example 158, 8-[chloro(difluoro)methoxy]-7-[4-(3-cyanopyridin-2-yl)piperazin-1-yl]-1-{4-[(dimethylamino)methyl]phenyl}-6-fluoro-4-oxo-1,4-dihydroquinoline-3-carboxylic acid]
< 500 nM	COc1c(N2CCN(c3ccc(C#N)cc3)CC2)c(F)cc2c(=O)c(C(=O)O)cn(-c3ccc(CN(C)C)cc3)c12 [Example 102, 7-[4-(4-cyanophenyl)piperazin-1-yl]-1-{4-[(dimethylamino)methyl]phenyl}-6-fluoro-8-methoxy-4-oxo-1,4-dihydroquinoline-3-carboxylic acid]
500 to 2000 nM	COc1c(N2CCN(c3ccccc3[N+](=O)[O-])CC2)c(F)cc2c(=O)c(C(=O)O)cn(-c3ccc(CN4CCCC4)cc3)c12 [Example 84, 6-fluoro-8-methoxy-7-[4-(2-nitrophenyl)-piperazin-1-yl]-4-oxo-1-[4-(pyrrolidin-1-ylmethyl)phenyl]-1,4-dihydroquinoline-3-carboxylic acid]
< 500 nM	O=C(O)c1cn(-c2ccc(CN3CCCC3)cc2)c2c(OC(F)(F)F)c(N3CCN(c4ncccn4)CC3)c(F)cc2c1=O [Example 123, 6-fluoro-4-oxo-7-(4-pyrimidin-2-yl-piperazin-1-yl)-1-[4-(pyrrolidin-1-ylmethyl)phenyl]-8-(trifluoromethoxy)-1,4-dihydroquinoline-3-carboxylic acid]
2000 to 20000 nM	CON(C)Cc1ccc(-n2cc(C(=O)O)c(=O)c3cc(F)c(N4CCN(c5ccccn5)CC4)c(Cl)c32)cc1 [Example 49, 8-chloro-6-fluoro-1-(4-{[methoxy(methyl)-amino]methyl}phenyl)-4-oxo-7-(4-pyridin-2-ylpiperazin-1-yl)-1,4-dihydroquinoline-3-carboxylic acid]
< 500 nM	O=C(O)c1cn(-c2ccc(CNC3CCC3)cc2)c2c(Cl)c(N3CCN(c4ccccn4)CC3)c(F)cc2c1=O [Example 58, 8-chloro-1-{4-[(cyclobutylamino)methyl]-phenyl}-6-fluoro-4-oxo-7-(4-pyridin-2-ylpiperazin-1-yl)-1,4-dihydroquinoline-3-carboxylic acid]
500 to 2000 nM	O=C(O)c1cn(-c2ccc(CN3CCCC3)nc2)c2c(Cl)c(N3CCN(c4ccccn4)CC3)c(F)cc2c1=O [Example 34, 8-chloro-6-fluoro-4-oxo-7-(4-pyridin-2-yl-piperazin-1-yl)-1-[6-(pyrrolidin-1-ylmethyl)pyridin-3-yl]-1,4-dihydroquinoline-3-carboxylic acid]
< 500 nM	COc1c(N2CCN(c3ccccc3C#N)CC2)c(F)cc2c(=O)c(C(=O)O)cn(-c3ccc(CN4CCCCC4)cc3)c12 [Example 89, 7-[4-(2-cyanophenyl)piperazin-1-yl]-6-fluoro-8-methoxy-4-oxo-1-[4-(piperidin-1-ylmethyl)phenyl]-1,4-dihydroquinoline-3-carboxylic acid]
2000 to 20000 nM	O=C(O)c1cn(-c2ccc(CN3CCCC3)nc2)c2c(Cl)c(N3CCN(c4ncccn4)CC3)c(F)cc2c1=O [Example 33, 8-chloro-6-fluoro-4-oxo-7-(4-pyrimidin-2-ylpiperazin-1-yl)-1-[6-(pyrrolidin-1-ylmethyl)pyridin-3-yl]-1,4-dihydroquinoline-3-carboxylic acid]
< 500 nM	O=C(O)c1cn(-c2ccc(CNCC3CC3)cc2)c2c(Cl)c(N3CCN(c4ccccn4)CC3)c(F)cc2c1=O [Example 170, 8-chloro-1-(4-{[(cyclopropylmethyl)amino]methyl}phenyl)6-fluoro-4-oxo-7-(4-pyridin-2-ylpiperazin-1-yl)-1,4-dihydroquinoline-3-carboxylic acid]
